Test results as given in US20260294910A1, “ORAL PHARMACEUTICAL COMPOSITIONS” (Assembly Biosciences, Inc., priority 2023, published 2026).
Like-named read-outs stand apart in the source and are kept apart here.

Legend:
[1] = human, oral; cited from earlier work
[2] = Dog IV study with and without oral charcoal administration (Example 10); format: in vivo, male non-naïve Beagle dogs; conditions: 0.10 mg/kg
Experimental: A 0.1 mg/mL solution of Compound 1 in 10% DMSO/10% Solutol HS15/80% Saline was prepared as follows: • 1) 4.63 mg Compound 1 was weighed into appropriately sized tube. • 2) 4.57 mL of DMSO was added into the tube. Vortexed for 2 minutes. • 3) 4.57 mL of Solutol HS15 was added into above tube. Vortexed for 2 minutes. • 4) 36.54 mL of saline was added. Vortex for 1 minute.
A 100 mg/mL suspension of Activated Charcoal in Saline was prepared as follows: • 1) 300 g Activated Charcoal was weighed into appropriately sized tube. • 2) 3000 mL of saline was added into the tube. • 3) Mixture was stirred for 10 minutes, and then sonicated for 10 minutes.
Two groups of Male non-naïve beagles were used for the dog PK study (n=2 per group). The prepared oral formulation was administered via oral administration with 25 gram dose of activated charcoal to Group 2 animals. Immediately after the PO administration, the prepared IV formulation was administered via 10 minutes IV infusion to both Group 1 and Group 2 animals with appropriate dosing volume to achieve the respective doses. Group 1 animals were fed before administration. Group 2 animals were fasted overnight before administration and were fed at 4 hours post oral administration.
At each time point, approximately 0.5 mL of whole blood was collected into K2EDTA tubes. […] Plasma samples were stored at approximately −80° C. until analyzed by LC-MS.

[3] = biorelevant non-sink dissolution experiment; format: physicochemical; conditions: 37° C.
Experimental: The preliminary dissolution performance of the SD samples and bulk Compound 1 was tested in a biorelevant non-sink dissolution experiment. About 0.5 mg SD samples were dispersed into 6 mL SGF medium firstly and stirred magnetically with 250 rpm at 37° C. After 30 min, 5 mL cFaSSIF-V2 (2×) medium was added into the above medium and adjusted the pH to 6.5 with 100 μL NaHCO3 (80 g/L). At each time point of 15 and 30 min in SGF and 15, 30, 60, 120 min in FaSSIF, 0.5 mL suspension was taken out and centrifuged. The supernatants were analyzed by HPLC.

carbonic anhydrase I = experiment: carbonic anhydrase inhibition, CA I; format: biochemical
Excerpt: Carbonic anhydrase inhibition can be measured using a carbonic anhydrase I assay as described in Katritzky et al. (J. Med. Chem. 1987, 30:2058) and a […] as described in Iyer et al. (J. Biomol. Screen 2006, 11:782).

[4] = predicted human PK by allometric scaling; conditions: allometric scaling from multiple species
carbonic anhydrase II = experiment: carbonic anhydrase inhibition, CA II; format: biochemical
[5] = tested on: recurrent genital herpes (HSV); conditions: human, oral, 100, 200, 400 and 1200 mg vs placebo; cited from earlier work
genital HSV = conditions: human, oral, cited from earlier work
[6] = cited from earlier work
genital HSV-2 = conditions: human, oral, cited from earlier work

For `C[C@@H](c1ccccc1)N(CC(=O)Nc1ccc(-c2csc(N)n2)cc1)C(=O)c1ccncc1` [BILS-179 BS], the “adverse events in early clinical trials” value [1] is given as “suspended in early clinical trials due to adverse events”.
In the case of `Cc1nc(N2CCCN(c3ccc(-c4cc(F)ccc4F)cc3)C2=O)sc1S(N)(=O)=O` [Compound 1, 2-(3-(2′,5′-difluoro-[1,1′-biphenyl]-4-yl)-2-oxotetrahydropyrimidin-1(2H)-yl)-4-methylthiazole-5-sulfonamide], the “clearance without versus with oral charcoal” value [2] is reported as “slower”, the “overall exposure without versus with oral charcoal” value [2] is reported as “higher” and the “Concentration in FaSSIF at 45 min” value ([3]; FaSSIF (pH 6.5), 45 min) is reported as 140 ng/mL. For the same molecule, the “Concentration in FaSSIF at 60 min” value ([3]; FaSSIF (pH 6.5), 60 min) was 120 ng/mL, the “Concentration in FaSSIF at 90 min” value ([3]; FaSSIF (pH 6.5), 90 min) was 140 ng/mL and the “Concentration in FaSSIF at 150 min” value ([3]; FaSSIF (pH 6.5), 150 min) was 120 ng/mL. For the same molecule, the “Concentration in SGF at 15 min” value ([3]; SGF (pH 1.7), 15 min) was 100 ng/mL, the “Concentration in SGF at 30 min” value ([3]; SGF (pH 1.7), 30 min) was 70 ng/mL and the “carbonic anhydrase I inhibition” value (carbonic anhydrase I) was “no or low levels of carbonic anhydrase inhibition”. The predicted human clearance [4] was 0.06 L/h and the “carbonic anhydrase II inhibition” value (carbonic anhydrase II) was “no or low levels of carbonic anhydrase inhibition”.
In the case of `Cc1cccc(C)c1N(CC(=O)Nc1ccc(-c2ncon2)cc1)C(=O)C1CCS(=O)(=O)CC1` [amenamevir], the “time to lesion healing” value [5] is given as “only significantly different between the very highest 1200 mg single dose group and the placebo-tested group” and the “adverse events in early clinical trials” value [1] is given as “suspended from early HSV clinical trials due to adverse events”.
In the case of `Cc1nc(N(C)C(=O)Cc2ccc(-c3ccccn3)cc2)sc1S(N)(=O)=O` [pritelivir, N-Methyl-N-(4-methyl-5-sulfamoyl-1,3-thiazol-2-yl)-2-[4-(pyridin-2-yl)phenyl]acetamide], the “break-through shedding at 75 mg daily” value (genital HSV; 75 mg daily) is listed as “break-through shedding remained”, the antiviral effect (genital HSV; daily 75 mg vs weekly 400 mg) is listed as “An oral daily dose of 75 mg had the greatest antiviral effect and this was found to be superior to the less frequently administered weekly dose of 400 mg” and the “number of days with lesions” value (genital HSV; genital herpes) is listed as “reduced the number of days with lesions”. For the same molecule, the “rate of genital HSV shedding” value (genital HSV; high doses, 28 days) was “reduced the rate of genital HSV shedding”, the “free fraction of total plasma concentration” value [6] was 2-3% and the protein binding ([6]; plasma) was 97-98%. For the same molecule, the “genital swabs with HSV shedding” value (genital HSV-2; 100 mg daily after 400 mg loading dose, 28 days) was 2.4%.
In the case of `CC(C)[C@H](N)C(=O)OCCOCn1cnc2c(=O)[nH]c(N)nc21` [valacyclovir], the “genital swabs with HSV shedding” value (genital HSV-2; 500 mg daily) is given as 5.3%.
